Measured values as given in patent US9480259B2, “Pyrazolopyrans having herbicidal and pharmaceutical properties” (BASF SE, priority 2012, dated 2016).

Target: Arabidopsis thaliana SHMT
Assay: SHMT activity assay (ED50 SHMT), coupled with N5,N10-CH2-THF dehydrogenase, NADH at 340 nm
Format: biochemical
Conditions: Table 2; values given as upper bounds
Protocol: Determination of the ED50 SHMT was carried out as described hereinunder.
Purification of Arabidopsis thaliana SHMT
The following buffers were used during the purification protocol:
Buffer A (Lysis and Wash Buffer): • 20 mM Na-Phosphat (pH 7,4) • 500 mM NaCI • 40 mM Imidazole • 1.0 mM L-Serine • 0.5 mM Pyridoxal-5-phosphate • 0.5 mM DTT
Buffer B (Elution Buffer): • 20 mM Na-Phosphat (pH 7,4) • 500 mM NaCl • 250 mM Imidazole • 1.0 mM L-Serine • 0.5 mM Pyridoxal-5-phosphate • 0.5 mM DTT
All procedures were conducted at 4° C. or on ice. Pellets were suspended in Buffer A containing 1 mg/ml DNAse +Complete EDTA-free protease inhibitor tablet. Cells were lysed using sonication or a French Press device, using standard settings. Lysis was centrifuged at 40000×g for 25 minutes. The supernatant was filtered (0.22 μM) before loading onto a Ni-NTA column.
A gravity flow column containing Ni-NTA resin was equilibrated with 10 CV Buffer A and loaded with filtered cell lysate. The column was then washed with 10 CV Buffer A. Elution was afforded using Buffer B and collected manually as mini-factions. EDTA was added after elution to a final concentration of 1 mM. Fractions were pooled on the basis of the correct band for SHMT visualised via SDS-PAGE and staining.
SHMT Assay Buffer: • 50 mM KH2PO4 (pH 7,4) • 2.0 mM NAD+ • 7.5 mM DTT • 0.3 mM Tetrahydrofolic acid • 4% DMSO
Reaction Start: 20 mM L-Serine
The rate of N5,N10-CH2-THF formation catalyzed by SHMT was monitored at 340 nm by coupling with excess N5,N10-CH2-THF dehydrogenase, which converts NAD+to NADH. Reactions were initiated by adding 20 mM L-Serine. Inhibition of initial velocity was determined by adding various inhibitors of the SHMT reaction and monitored as described. Reactions were measured in a Bio Tek micro titer plate reader following the change in absorption with the formation of NADH for 30 mimnutes.

Structure (SMILES)	EC50 [µM]
CCC1(c2ccc(O)c([N+](=O)[O-])c2)C(C#N)=C(N)Oc2[nH]nc(C)c21 (stereo not shown) [Compound 2.37.]	< 1
CCC1(c2ccc(NC(=O)C(C)(C)C)cc2)C(C#N)=C(N)Oc2[nH]nc(C)c21 (stereo not shown) [Compound 2.39.]	< 10
CCC1(c2ccc([N+](=O)[O-])cc2)C(C#N)=C(N)Oc2[nH]nc(C)c21 (stereo not shown) [Compound 2.40.]	< 1
CCC1(c2ccc(-c3ccccc3F)cc2)C(C#N)=C(N)Oc2[nH]nc(C)c21 (stereo not shown) [Compound 2.44.]	< 1
CCC1(c2cc(F)c(OC)c(F)c2)C(C#N)=C(N)Oc2[nH]nc(C)c21 (stereo not shown) [Compound 2.45.]	< 1
Cc1n[nH]c2c1C(c1ccc(Cl)cc1)(C1CC1)C(C#N)=C(N)O2 (stereo not shown) [Compound 2.46.]	< 1
CCC1(c2cc(C(F)(F)F)cc(C(F)(F)F)c2)C(C#N)=C(N)Oc2[nH]nc(C)c21 (stereo not shown) [Compound 2.47.]	< 0.1
CCC1(c2ccc(OC(=O)c3c(Cl)cccc3Cl)c(C)c2)C(C#N)=C(N)Oc2[nH]nc(C)c21 (stereo not shown) [Compound 2.48.]	< 10
CCC1(c2ccc(OC(=O)c3ccccc3)c(C)c2)C(C#N)=C(N)Oc2[nH]nc(C)c21 (stereo not shown) [Compound 2.49.]	< 1
CCC1(c2ccc(OC(=O)C(C)(C)C)c(C)c2)C(C#N)=C(N)Oc2[nH]nc(C)c21 (stereo not shown) [Compound 2.52.]	< 1
CCC1(c2ccc(OS(=O)(=O)C(C)C)c(C)c2)C(C#N)=C(N)Oc2[nH]nc(C)c21 (stereo not shown) [Compound 2.54.]	< 1
CCC1(c2ccc(OS(=O)(=O)Cc3ccccc3)c(C)c2)C(C#N)=C(N)Oc2[nH]nc(C)c21 (stereo not shown) [Compound 2.55.]	< 1
CCC1(c2ccc(OS(=O)(=O)c3ccc(Cl)c(Cl)c3)c(C)c2)C(C#N)=C(N)Oc2[nH]nc(C)c21 (stereo not shown) [Compound 2.56.]	< 10
CCC1(c2ccc(OS(=O)(=O)c3ccc(Cl)cc3)c(C)c2)C(C#N)=C(N)Oc2[nH]nc(C)c21 (stereo not shown) [Compound 2.57.]	< 10
CCC1(c2ccc(OS(=O)(=O)c3ccccc3)c(C)c2)C(C#N)=C(N)Oc2[nH]nc(C)c21 (stereo not shown) [Compound 2.58.]	< 1
CCC1(c2ccc(OS(=O)(=O)c3ccc(Cl)cc3Cl)c(C)c2)C(C#N)=C(N)Oc2[nH]nc(C)c21 (stereo not shown) [Compound 2.59.]	< 10
Cc1n[nH]c2c1C(c1cccc(C(F)(F)F)c1)(C1CC1)C(C#N)=C(N)O2 (stereo not shown) [Compound 2.60.]	< 1
Cc1n[nH]c2c1C(c1cc(Cl)cc(Cl)c1)(C1CC1)C(C#N)=C(N)O2 (stereo not shown) [Compound 2.61.]	< 1
CCC1(c2cc(Cl)cc(Cl)c2)C(C#N)=C(N)Oc2[nH]ncc21 (stereo not shown) [Compound 2.62.]	< 10
CCC1(c2cccc(C(F)(F)F)c2)C(C#N)=C(N)Oc2[nH]ncc21 (stereo not shown) [Compound 2.63.]	< 10
CCC1(c2cc(C(F)(F)F)cc(C(F)(F)F)c2)C(C#N)=C(N)Oc2[nH]ncc21 (stereo not shown) [Compound 2.64.]	< 1
CCC1(c2ccc(F)c(C(F)(F)F)c2)C(C#N)=C(N)Oc2[nH]nc(C)c21 (stereo not shown) [Compound 2.65.]	< 1
Cc1n[nH]c2c1C(c1cccc([N+](=O)[O-])c1)(C(F)(F)F)C(C#N)=C(N)O2 (stereo not shown) [Compound 2.68.]	< 1

Structure (SMILES)	EC50 [µM]
CCC1(c2ccc(NC(=O)OC)cc2)C(C#N)=C(N)Oc2[nH]nc(C)c21 (stereo not shown) [Compound 2.80.]	< 1
CCC(=O)Nc1ccc(C2(CC)C(C#N)=C(N)Oc3[nH]nc(C)c32)cc1 (stereo not shown) [Compound 2.81.]	< 1
CCC1(c2cc(C(F)(F)F)cc(C(F)(F)F)c2)C(C#N)=C(N)Oc2[nH]nc(COC)c21 (stereo not shown) [Compound 2.82.]	< 1
CCCc1n[nH]c2c1C(CC)(c1cc(C(F)(F)F)cc(C(F)(F)F)c1)C(C#N)=C(N)O2 (stereo not shown) [Compound 2.83.]	< 1
CCc1n[nH]c2c1C(CC)(c1cc(C(F)(F)F)cc(C(F)(F)F)c1)C(C#N)=C(N)O2 (stereo not shown) [Compound 2.84.]	< 0.1
CCCc1n[nH]c2c1C(CC)(c1cccc(Cl)c1)C(C#N)=C(N)O2 (stereo not shown) [Compound 2.85.]	< 10
CCC1(c2cc(Oc3ccccc3)cc(C(F)(F)F)c2)C(C#N)=C(N)Oc2[nH]nc(C)c21 (stereo not shown) [Compound 2.86.]	< 1
Cc1n[nH]c2c1C(c1cccc(Cl)c1)(C(F)(F)F)C(C#N)=C(N)O2 (stereo not shown) [Compound 2.87.]	< 10
Cc1n[nH]c2c1C(c1cc(Cl)cc(Cl)c1)(C(F)(F)F)C(C#N)=C(N)O2 (stereo not shown) [Compound 2.88.]	< 1
CCCC1(c2cc(Cl)cc(Cl)c2)C(C#N)=C(N)Oc2[nH]nc(C)c21 (stereo not shown) [Compound 2.89.]	< 1
CCCC1(c2ccc(Cl)c(Cl)c2)C(C#N)=C(N)Oc2[nH]nc(C)c21 (stereo not shown) [Compound 2.90.]	< 1
CCCC1(c2cccc(Cl)c2)C(C#N)=C(N)Oc2[nH]nc(C)c21 (stereo not shown) [Compound 2.94.]	< 1
Cc1n[nH]c2c1C(c1cccc(C(F)(F)F)c1)(C(F)(F)F)C(C#N)=C(N)O2 (stereo not shown) [Compound 2.95.]	< 1
Cc1n[nH]c2c1C(c1ccc(Cl)cc1)(C(F)(F)C(F)(F)F)C(C#N)=C(N)O2 (stereo not shown) [Compound 2.96.]	< 1
CCc1n[nH]c2c1C(CC)(c1cccc(C(F)(F)F)c1)C(C#N)=C(N)O2 (stereo not shown) [Compound 2.98.]	< 1
Cc1n[nH]c2c1C(CCC#N)(c1cccc(Cl)c1)C(C#N)=C(N)O2 (stereo not shown) [Compound 2.100.]	< 10
Cc1n[nH]c2c1C(CCC(F)(F)F)(c1cccc(C(F)(F)F)c1)C(C#N)=C(N)O2 (stereo not shown) [Compound 2.101.]	< 10
CCc1n[nH]c2c1C(c1cccc(C(F)(F)F)c1)(C1CC1)C(C#N)=C(N)O2 (stereo not shown) [Compound 2.104.]	< 1
CCC1(c2cccc(Cl)c2)C(C#N)=C(N)Oc2[nH]nc(CCC(F)F)c21 (stereo not shown) [Compound 2.105.]	< 10
CCC1(c2cccc(C(F)(F)F)c2)C(C#N)=C(N)Oc2[nH]nc(CCC(F)F)c21 (stereo not shown) [Compound 2.106.]	< 10
CCC1(c2cc(C(F)(F)F)cc(C(F)(F)F)c2)C(C#N)=C(N)Oc2[nH]nc(CCC(F)F)c21 (stereo not shown) [Compound 2.107.]	< 1
Cc1n[nH]c2c1C(CC(C)C)(c1cc(C(F)(F)F)cc(C(F)(F)F)c1)C(C#N)=C(N)O2 (stereo not shown) [Compound 2.108.]	< 0.1
CCc1n[nH]c2c1C(CC)(c1cc(Cl)cc(Cl)c1)C(C#N)=C(N)O2 (stereo not shown) [Compound 2.109.]	< 1

Structure (SMILES)	EC50 [µM]
CCCc1n[nH]c2c1C(CC)(c1cc(Cl)cc(Cl)c1)C(C#N)=C(N)O2 (stereo not shown) [Compound 2.110.]	< 1
Cc1cc(C2(C3CC3)C(C#N)=C(N)Oc3[nH]nc(C)c32)ccc1O (stereo not shown) [Compound 2.111.]	< 10
Cc1n[nH]c2c1C(c1cc(Cl)cc(Cl)c1)(C(C)C)C(C#N)=C(N)O2 (stereo not shown) [Compound 2.112.]	< 0.01
CCC1(c2cc(Cl)cc(Oc3ccccc3)c2)C(C#N)=C(N)Oc2[nH]nc(C)c21 (stereo not shown) [Compound 2.113.]	< 0.1
CCc1n[nH]c2c1C(c1ccc(Cl)cc1)(C1CC1)C(C#N)=C(N)O2 (stereo not shown) [Compound 2.114.]	< 0.1
CCCc1n[nH]c2c1C(c1ccc(Cl)cc1)(C1CC1)C(C#N)=C(N)O2 (stereo not shown) [Compound 2.115.]	< 0.1
CCC1(c2cccc(Cl)c2)C(C#N)=C(N)Oc2[nH]nc(C(C)C)c21 (stereo not shown) [Compound 2.116.]	< 1
CCC1(c2cccc(Cl)c2)C(C#N)=C(N)Oc2[nH]nc(C3CC3)c21 (stereo not shown) [Compound 2.117.]	< 10
CCC1(c2cccc(C(F)(F)F)c2)C(C#N)=C(N)Oc2[nH]nc(C(C)C)c21 (stereo not shown) [Compound 2.118.]	< 1
CCC1(c2cccc(C(F)(F)F)c2)C(C#N)=C(N)Oc2[nH]nc(C3CC3)c21 (stereo not shown) [Compound 2.119.]	< 1
CCC1(c2cc(C(F)(F)F)cc(C(F)(F)F)c2)C(C#N)=C(N)Oc2[nH]nc(C(C)C)c21 (stereo not shown) [Compound 2.120.]	< 0.1
CCC1(c2cc(C(F)(F)F)cc(C(F)(F)F)c2)C(C#N)=C(N)Oc2[nH]nc(C3CC3)c21 (stereo not shown) [Compound 2.121.]	< 0.1
Cc1n[nH]c2c1C(c1cccc(Cl)c1)(C(C)C)C(C#N)=C(N)O2 (stereo not shown) [Compound 2.122.]	< 0.1
CSc1ccc(C2(C(C)C)C(C#N)=C(N)Oc3[nH]nc(C)c32)cc1 (stereo not shown) [Compound 2.123.]	< 0.1
COc1ccc(C2(C(C)C)C(C#N)=C(N)Oc3[nH]nc(C)c32)cc1Cl (stereo not shown) [Compound 2.124.]	< 0.01
Cc1n[nH]c2c1C(CC(C)C)(c1cc(Cl)cc(Cl)c1)C(C#N)=C(N)O2 (stereo not shown) [Compound 2.125.]	< 0.1
Cc1n[nH]c2c1C(CC(C)C)(c1cccc(Cl)c1)C(C#N)=C(N)O2 (stereo not shown) [Compound 2.126.]	< 1
CC(C)c1n[nH]c2c1C(c1ccc(Cl)cc1)(C1CC1)C(C#N)=C(N)O2 (stereo not shown) [Compound 2.128.]	< 10
N#CC1=C(N)Oc2[nH]nc(C3CC3)c2C1(c1ccc(Cl)cc1)C1CC1 (stereo not shown) [Compound 2.129.]	< 10
CCc1n[nH]c2c1C(CC)(c1ccc(Oc3ccccc3)cc1)C(C#N)=C(N)O2 (stereo not shown) [Compound 2.130.]	< 1
CCC1(c2ccc(Oc3ccccc3)cc2)C(C#N)=C(N)Oc2[nH]nc(C3CC3)c21 (stereo not shown) [Compound 2.131.]	< 10
